# Where two headings read alike, the source gives them in different places.
# Legend:
# mongrel cats [1] = test: inotropic and frequency-lowering heart circulation effectiveness on mongrel cats, intravenous; assay type: in vivo; parameters: heart frequency previously / dp/dt previously / dp/dt afterwards: unit not given beside the values; conditions: cat; for blood pressure afterwards / dp/dt afterwards / heart frequency afterwards: after; for blood pressure previously / dp/dt previously / heart frequency previously: before; for blood pressure Δ / dp/dt Δ / heart frequency Δ: change
# Protocol: (§1) The animals were narcotised with a mixture of chloralose-urethane (1.2 g./kg. urethane+40 mg./kg. chloralose administered i.p.). They breathed spontaneously through a tracheal canula. The A. carotis sinistra was used in order to place a catheter tip manometer into the left heart chamber. The V. jugularis served for injection purposes. Via the A. femoralis dextra, a catheter was pushed in up to the Aorta descendans and attached to a pressure recorder (Statham P 23 Db). The heart frequency was recorded with a pulse frequency measurer (Firm Hugo Sachs Elektronik) from the left ventricular pressure signal.
# mongrel cats [2] = test: inotropic and frequency-lowering heart circulation effectiveness on mongrel cats, intraduodenal; assay type: in vivo; conditions: cat, 5 mg/kg intraduodenal
# Protocol: as §1, with “A. femoralis,” for “A. femoralis dextra,”, “pushed” for “pushed in”, “up into” for “up to”, “measurer (firm” for “measurer (Firm”, “signal. A duodenal loop was exposed by a laparotomy. The substances to be tested were injected directly into the lumen.” for “signal.”
# [3] = acute toxicity in mice according to the method of Lichtfield and Wilcoxon; conditions: mouse, in vivo
# Protocol: As to example 1d, the following values for acute toxicity were determined with a greater number of mice, according to the method of Lichtfield and Wilcoxon: […]
# guinea pigs = test: blood pressure-lowering effectiveness on narcotised guinea pigs, i.v.; conditions: for blood pressure afterwards: after; for blood pressure previously: before; for blood pressure Δ: change
# [4] = system: isolated rat aorta preparations; test: spasmolytic effectiveness on isolated rat aorta preparations (noradrenaline- and potassium chloride-induced contractions)
# [5] = read-out: ED50 for spasmolytic action, Noradrenaline spasm (50% inhibition)
# [6] = read-out: ED50 for spasmolytic action, potassium chloride spasm (50% inhibition)
structure (smiles),measurement,setting,value
"Cn1c(=O)c2c(ncn2CCCN[C@H]2CO[C@H]3[C@@H]2OC[C@@H]3O[N+](=O)[O-])n(C)c1=O [Example 1d, 5-(3-Theophyllin-7-ylpropyl)-amino-5-desoxy-1.4;3.6-dianhydro-L-iditol 2-nitrate]",blood pressure WD,mongrel cats [1]; 0.25 mg/kg i.v.,27.71 min
same,dp/dt WD,mongrel cats [1]; 0.25 mg/kg i.v.,15.57 min
same,blood pressure afterwards,mongrel cats [1]; 0.25 mg/kg i.v.,64.86
same,dp/dt afterwards,mongrel cats [1]; 0.25 mg/kg i.v.,6086
same,heart frequency afterwards,mongrel cats [1]; 0.25 mg/kg i.v.,184.57
same,blood pressure previously,mongrel cats [1]; 0.25 mg/kg i.v.,103.00
same,dp/dt previously,mongrel cats [1]; 0.25 mg/kg i.v.,7371
same,heart frequency previously,mongrel cats [1]; 0.25 mg/kg i.v.,180.86
same,blood pressure Δ,mongrel cats [1]; 0.25 mg/kg i.v.,-38.14
same,dp/dt Δ,mongrel cats [1]; 0.25 mg/kg i.v.,-1285
same,heart frequency Δ,mongrel cats [1]; 0.25 mg/kg i.v.,+3.71
same,blood pressure WD,mongrel cats [1]; 0.50 mg/kg i.v.,20.21 min
same,dp/dt WD,mongrel cats [1]; 0.50 mg/kg i.v.,24.57 min
same,blood pressure afterwards,mongrel cats [1]; 0.50 mg/kg i.v.,61.57
same,dp/dt afterwards,mongrel cats [1]; 0.50 mg/kg i.v.,5300
same,heart frequency afterwards,mongrel cats [1]; 0.50 mg/kg i.v.,182.29
same,blood pressure previously,mongrel cats [1]; 0.50 mg/kg i.v.,101.86
same,dp/dt previously,mongrel cats [1]; 0.50 mg/kg i.v.,6614
same,heart frequency previously,mongrel cats [1]; 0.50 mg/kg i.v.,178.29
same,blood pressure Δ,mongrel cats [1]; 0.50 mg/kg i.v.,-40.29
same,dp/dt Δ,mongrel cats [1]; 0.50 mg/kg i.v.,-1314
same,heart frequency Δ,mongrel cats [1]; 0.50 mg/kg i.v.,+4.00
same,blood pressure WD,mongrel cats [1]; 1.00 mg/kg i.v.,24.29 min
same,dp/dt WD,mongrel cats [1]; 1.00 mg/kg i.v.,19.58 min
same,blood pressure afterwards,mongrel cats [1]; 1.00 mg/kg i.v.,59.86
same,dp/dt afterwards,mongrel cats [1]; 1.00 mg/kg i.v.,5186
same,heart frequency afterwards,mongrel cats [1]; 1.00 mg/kg i.v.,182.00
same,blood pressure previously,mongrel cats [1]; 1.00 mg/kg i.v.,103.43
same,dp/dt previously,mongrel cats [1]; 1.00 mg/kg i.v.,5957
same,heart frequency previously,mongrel cats [1]; 1.00 mg/kg i.v.,174.00
same,blood pressure Δ,mongrel cats [1]; 1.00 mg/kg i.v.,-43.57
same,dp/dt Δ,mongrel cats [1]; 1.00 mg/kg i.v.,-771
same,heart frequency Δ,mongrel cats [1]; 1.00 mg/kg i.v.,+8.00
same,blood pressure WD,mongrel cats [1]; 2.50 mg/kg i.v.,> 10 min
same,dp/dt WD,mongrel cats [1]; 2.50 mg/kg i.v.,6.42 min
same,blood pressure afterwards,mongrel cats [1]; 2.50 mg/kg i.v.,63.88
same,dp/dt afterwards,mongrel cats [1]; 2.50 mg/kg i.v.,6550
same,heart frequency afterwards,mongrel cats [1]; 2.50 mg/kg i.v.,180.33
same,blood pressure previously,mongrel cats [1]; 2.50 mg/kg i.v.,107.50
same,dp/dt previously,mongrel cats [1]; 2.50 mg/kg i.v.,6383
same,heart frequency previously,mongrel cats [1]; 2.50 mg/kg i.v.,169.67
same,blood pressure Δ,mongrel cats [1]; 2.50 mg/kg i.v.,-43.62
same,dp/dt Δ,mongrel cats [1]; 2.50 mg/kg i.v.,+167
same,heart frequency Δ,mongrel cats [1]; 2.50 mg/kg i.v.,+10.66
same,blood pressure,mongrel cats [2]; 0 min,115.4 ± 14.4 mm. Hg
same,dp/dt,mongrel cats [2]; 0 min,6000 ± 1367 mm sec.
same,frequency,mongrel cats [2]; 0 min,173.2 ± 14.5 min⁻¹
same,blood pressure,mongrel cats [2]; 10 min,86.0 ± 13.8 mm. Hg
same,dp/dt,mongrel cats [2]; 10 min,4880 ± 1371 mm sec.
same,frequency,mongrel cats [2]; 10 min,173.6 ± 14.8 min⁻¹
same,blood pressure Δ,mongrel cats [2]; 10 min vs 0,-29.4 mm. Hg
same,dp/dt Δ,mongrel cats [2]; 10 min vs 0,-1120 mm sec.
same,blood pressure,mongrel cats [2]; 30 min,88.6 ± 14.8 mm. Hg
same,dp/dt,mongrel cats [2]; 30 min,4500 ± 1312 mm sec.
same,frequency,mongrel cats [2]; 30 min,166.0 ± 15.6 min⁻¹
same,blood pressure Δ,mongrel cats [2]; 30 min vs 0,-26.8 mm. Hg
same,dp/dt Δ,mongrel cats [2]; 30 min vs 0,-1440 mm sec.
same,blood pressure,mongrel cats [2]; 60 min,95.0 ± 14.4 mm. Hg
same,dp/dt,mongrel cats [2]; 60 min,5020 ± 1330 mm sec.
same,frequency,mongrel cats [2]; 60 min,168.4 ± 14.0 min⁻¹
same,blood pressure Δ,mongrel cats [2]; 60 min vs 0,-20.4 mm. Hg
same,dp/dt Δ,mongrel cats [2]; 60 min vs 0,-980 mm sec.
same,blood pressure,mongrel cats [2]; 120 min,99.4 ± 13.2 mm. Hg
same,dp/dt,mongrel cats [2]; 120 min,5100 ± 1341 mm sec.
same,frequency,mongrel cats [2]; 120 min,164.8 ± 13.2 min⁻¹
same,blood pressure Δ,mongrel cats [2]; 120 min vs 0,-16.0 mm. Hg
same,dp/dt Δ,mongrel cats [2]; 120 min vs 0,-900 mm sec.
same,LD50,"[3]; ip, printed range (678.6-851.2), read-out: LD50 i.p.",760 mg/kg
same,LD50,"[3]; iv, printed range (190.4-251.9), read-out: LD50 i.v.",219 mg/kg
same,LD50,"[3]; po, read-out: LD50 p.o.",1600 mg/kg
same,blood pressure afterwards,guinea pigs; 0.25 mg/kg i.v.,49.75 ± 2.78 mm. Hg
same,blood pressure previously,guinea pigs; 0.25 mg/kg i.v.,67.75 ± 3.27 mm. Hg
same,blood pressure Δ,guinea pigs; 0.25 mg/kg i.v.,-18.00 mm. Hg
same,blood pressure afterwards,guinea pigs; 1.00 mg/kg i.v.,40.00 ± 2.12 mm. Hg
same,blood pressure previously,guinea pigs; 1.00 mg/kg i.v.,68.00 ± 3.85 mm. Hg
same,blood pressure Δ,guinea pigs; 1.00 mg/kg i.v.,-28.00 mm. Hg
same,blood pressure afterwards,guinea pigs; 2.50 mg/kg i.v.,37.50 ± 1.76 mm. Hg
same,blood pressure previously,guinea pigs; 2.50 mg/kg i.v.,66.25 ± 2.66 mm. Hg
same,blood pressure Δ,guinea pigs; 2.50 mg/kg i.v.,-28.75 mm. Hg
same,blood pressure-lowering effectiveness compared with ISMN or ISDN,"guinea pigs; i.v., narcotised guinea pigs",more effective than ISMN or ISDN
same,IC50,[4]; [5],560 nM
same,IC50,[4]; [6],2900 nM
"CN(CCCn1cnc2c1c(=O)n(C)c(=O)n2C)[C@H]1CO[C@H]2[C@@H]1OC[C@@H]2O[N+](=O)[O-] [Example 9c, 5-[N-Methyl-N-(3-theophyllin-7-ylpropyl)-amino]-5-desoxy-1.4;3.6-dianhydro-L-iditol 2-nitrate]",IC50,[4]; [5],2950 nM
same,IC50,[4]; [6],45900 nM
